Values quoted from earlier work, collected in patent publication US11045513B2, “Association of dry extracts of Vicia faba, Uncaria rhyncophylla and liquorice root together with coenzyme Q10 for use as coadjuvant, for improving the quality of life in subjects suffering from movement disorders” (CRISTALFARMA S.R.L., priority 2018, dated 2021).

Molecular target: dopamine D3 receptor (DRD3) (Homo sapiens, UniProt P35462)
Sequence (P35462 whole entry): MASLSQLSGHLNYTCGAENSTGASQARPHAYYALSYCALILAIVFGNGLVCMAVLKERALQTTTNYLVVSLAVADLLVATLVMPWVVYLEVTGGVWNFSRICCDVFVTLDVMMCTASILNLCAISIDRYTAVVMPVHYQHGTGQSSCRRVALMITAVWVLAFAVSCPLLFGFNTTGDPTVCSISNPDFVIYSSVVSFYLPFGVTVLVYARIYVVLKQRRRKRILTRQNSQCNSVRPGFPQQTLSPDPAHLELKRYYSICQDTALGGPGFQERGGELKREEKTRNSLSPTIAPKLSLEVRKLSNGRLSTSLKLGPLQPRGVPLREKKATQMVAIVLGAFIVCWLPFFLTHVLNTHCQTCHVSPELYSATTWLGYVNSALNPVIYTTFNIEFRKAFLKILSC

binding affinity for the dopamine D3 receptor (DRD3): strong binding affinity
SMILES: CC1(C)[C@@H](O)CC[C@]2(C)[C@H]3C(=O)C=C4[C@@H]5C[C@@](C)(C(=O)O)CC[C@]5(C)CC[C@@]4(C)[C@]3(C)CC[C@@H]12 [glycyrrhetinic acid]
